This note sets out measurements from ChEMBL document CHEMBL5126624, “Targeted Isolation of Anti-inflammatory Lignans from Justicia aequilabris by Molecular Networking Approach” (J Nat Prod, 2022).

Data set [1] is described as follows: Cytotoxicity in LPS-stimulated mouse RAW264.7 cells assessed as reduction in cell viability incubated for […] by alamar blue dye based colorimetric assay. To be noted: LPS-stimulated RAW264.7 cells. The data set is classed as toxicity. In general terms: The colour change of resazurin is a common sign of viable cells or microbes.
In data set [2] the test system is RAW264.7. As to the kind of experiment: Antiinflammatory activity in mouse RAW264.7 cells assessed as decrease in IFN-gamma and LPS-induced IL-1beta production by measuring IL-1beta level at 6.3 uM after 24 hrs by ELISA (reference value: 73.3 +/- 1.8 pg/mg). The format is functional.
In data set [3] the test system is RAW264.7. As to the kind of experiment: Antiinflammatory activity in mouse RAW264.7 cells assessed as decrease in IFN-gamma and LPS-induced IL-1beta production at 25 uM after 24 hrs by ELISA. The data set is classed as functional. Background: ELISA stands for enzyme-linked immunosorbent assay.
Data set [4] relates to RAW264.7. As to the kind of experiment: Antiinflammatory activity in mouse RAW264.7 cells assessed as decrease in IFN-gamma and LPS-induced IL-1beta production by measuring IL-1beta level at 25 uM after 24 hrs by ELISA (reference value: 73.3 +/- 1.8 pg/mg). The data set is classed as functional.
Data set [5] concerns RAW264.7. In words: Antiinflammatory activity in mouse RAW264.7 cells assessed as decrease in IFN-gamma and LPS-induced nitric oxide production after 24 hrs by ELISA. The format is functional, cell-based. As to conditions: RAW264.7, 24 h.
Data set [6] deals with RAW264.7. In words: Antiinflammatory activity in mouse RAW264.7 cells assessed as decrease in IFN-gamma and LPS-induced IL-1beta production by measuring IL-1beta level at 3.1 uM after 24 hrs by ELISA (reference value: 73.3 +/- 1.8 pg/mg). The data set is classed as functional.
The subject of data set [7] is RAW264.7. As to the kind of experiment: Antiinflammatory activity in mouse RAW264.7 cells assessed as decrease in IFN-gamma and LPS-induced IL-1beta production by measuring IL-1beta level at 12.5 uM after 24 hrs by ELISA (reference value: 73.3 +/- 1.8 pg/mg). The format is functional.
Data set [8] has as its system RAW264.7. As to the kind of experiment: Antiinflammatory activity in mouse RAW264.7 cells assessed as decrease in IFN-gamma and LPS-induced IL-1beta production by measuring IL-1beta level at 50 uM after 24 hrs by ELISA (reference value: 73.3 +/- 1.8 pg/mg). The format is functional.
Data set [9] has as its system RAW264.7. In words: Antiinflammatory activity in mouse RAW264.7 cells assessed as decrease in IFN-gamma and LPS-induced IL-1beta production at 50 uM after 24 hrs by ELISA. The format is functional.
For data set [10], the system named is RAW264.7. As to the kind of experiment: Antiinflammatory activity in mouse RAW264.7 cells assessed as decrease in IFN-gamma and LPS-induced IL-1beta production by measuring IL-1beta level at 8.4 uM after 24 hrs by ELISA (reference value: 73.3 +/- 1.8 pg/mg). The data set is classed as functional.
The test system of data set [11] is RAW264.7. As to the kind of experiment: Antiinflammatory activity in mouse RAW264.7 cells assessed as decrease in IFN-gamma and LPS-induced IL-1beta production by measuring IL-1beta level at 16.7 uM after 24 hrs by ELISA (reference value: 73.3 +/- 1.8 pg/mg). The data set is classed as functional.
Data set [12] deals with RAW264.7. As to the kind of experiment: Antiinflammatory activity in mouse RAW264.7 cells assessed as decrease in IFN-gamma and LPS-induced IL-1beta production at 6.7 uM after 24 hrs by ELISA. The format is functional.
Data set [13] relates to RAW264.7. As to the kind of experiment: Antiinflammatory activity in mouse RAW264.7 cells assessed as decrease in IFN-gamma and LPS-induced IL-1beta production by measuring IL-1beta level at 4.2 uM after 24 hrs by ELISA (reference value: 73.3 +/- 1.8 pg/mg). The format is functional.
Data set [14] relates to RAW264.7. As to the kind of experiment: Antiinflammatory activity in mouse RAW264.7 cells assessed as decrease in IFN-gamma and LPS-induced IL-1beta production by measuring IL-1beta level at 2.1 uM after 24 hrs by ELISA (reference value: 73.3 +/- 1.8 pg/mg). The format is functional.
In data set [15] the test system is RAW264.7. In words: Antiinflammatory activity in mouse RAW264.7 cells assessed as maximum decrease in IFN-gamma and LPS-induced IL-1beta production after 24 hrs by ELISA. The data set is classed as functional.
The test system of data set [16] is RAW264.7. As to the kind of experiment: Antiinflammatory activity in mouse RAW264.7 cells assessed as decrease in IFN-gamma and LPS-induced IL-1beta production by measuring IL-1beta level at 10 uM after 24 hrs by ELISA (reference value: 73.3 +/- 1.8 pg/mg). The format is functional.

As a reminder, the CC50 is the concentration giving 50% cytotoxicity. What is called IC50 is the concentration that inhibits the measured activity by half.

For the molecule `COc1cc(C[C@@H](CO)[C@H](COC(=O)CC(=O)O)Cc2ccc(O)c(OC)c2)ccc1O`, the CC50 at 24 h in [1] is 9.1 µM. Also, the Activity in the data set on RAW264.7 [2] is 71.1 pg/mg; in the data set with RAW264.7 [4], 53.3 pg/mg; in the data set with RAW264.7 [6], 73.1 pg/mg; in the data set on RAW264.7 [7], 66 pg/mg. In addition, the Imax in the data set on RAW264.7 [3] turned out to be 27.3%. Also, the IC50 with RAW264.7 [5] is 173 µM.

As for `COc1cc(C[C@H]2COC(=O)[C@@H](C(=O)O)[C@@H](C)[C@@H](C(=O)O)C(=O)OC[C@@H]2Cc2ccc(O)c(OC)c2)ccc1O`, the CC50 at 24 h in data set [1] stood at 23.4 µM. Moreover, the Activity in the data set on RAW264.7 [2] amounted to 73.3 pg/mg; in the data set on RAW264.7 [4], 70.2 pg/mg; in the data set with RAW264.7 [8], 56 pg/mg; with RAW264.7 [7], 71.3 pg/mg. For the same molecule, the IC50 in the data set on RAW264.7 [5] is more than 200 µM. For the same molecule, in the data set with RAW264.7 [9], the Imax was 23.5%.

As for `C/C=C/C(=O)OC[C@H](Cc1ccc(O)c(OC)c1)[C@H](CO)Cc1ccc(O)c(OC)c1`, the Activity with RAW264.7 [10] was 65.7 pg/mg; with RAW264.7 [11], 49.4 pg/mg; with RAW264.7 [13], 69.8 pg/mg; in the data set with RAW264.7 [14] it was 74.1 pg/mg. Besides, the CC50 at 24 h in [1] is 7.3 µM. Moreover, the IC50 with RAW264.7 [5] turned out to be 92 µM. Moreover, in the data set with RAW264.7 [12], the Imax is 32.5%.

As to `COc1cc(C[C@@H](CO)[C@H](CO)Cc2ccc(O)c(OC)c2)ccc1O` [(+)-SECOISOLARICIRESINOL], the Activity in the data set with RAW264.7 [10] is 72.8 pg/mg; with RAW264.7 [11], 73 pg/mg; with RAW264.7 [13], 73 pg/mg; in the data set with RAW264.7 [14] it was 74.9 pg/mg. Further, the Imax with RAW264.7 [15] was determined as 0%. Also, the IC50 in the data set with RAW264.7 [5] was determined as 132 µM.

As to `C[C@@H]1C[C@H]2[C@@H]3CCC4=CC(=O)C=C[C@]4(C)[C@@]3(F)[C@@H](O)C[C@]2(C)[C@@]1(O)C(=O)CO` [DEXAMETHASONE], in data set [1], the CC50 at 24 h worked out at 4.4 µM. Also, the Imax in the data set on RAW264.7 [16] worked out at 47.9%.

Regarding `CN(C)c1ccc(C(=C2C=CC(=[N+](C)C)C=C2)c2ccc(N(C)C)cc2)cc1` [GENTIAN VIOLET], the IC50 in the data set with RAW264.7 [5] came to 1.1 µM.
